Consider one molecule from article PMC12651750 (Cells, 2025).

SMILES strings stand for the structures. Read-outs that look alike come from different tables or passages of the source.

Common to all, as to assay: Anti-proliferation MTT / CCK-8 assay
Common to all, as to type: cell-based

Assay [1] concerns MCF-7, human breast cancer cell line. The following applies: MCF7, read-out: IC50 proliferation MCF-7, heading: IC50 proliferation MCF-7, 72 h, mean ± SEM of three independent assays. The text has this:
(§1) K562, human erythroleukemia line; HL-60, human leukemic cell line; Jurkat, human leukemic T cell line; CCRF-CEM, human leukemic lymphoblasts; U937, human histiocytic lymphoma; HCT-116, human colorectal cancer cell line; A549, human lung cancer cell line; Hep G2, human hepatoma cell lines; MDA-MB-231, MCF-7, human breast cancer cell line; 4T1, mouse breast cancer cell line; PC12, pheochromocytoma of the rat adrenal medulla; HUVEC, human umbilical vein endothelial cells. These cells were purchased from the National Collection of Authenticated Cell Cultures (Shanghai, China).
(§2) The concentration of the cell suspension was adjusted to the appropriate concentration with fresh medium (the number of cells was about 30–40% of the bottom area of the well plate). 150 μL (about 1 × 10^4 cells) of prepared cell suspension containing different concentrations of NBU-2 were added to a 96-microtiter plate, and 3 replicate wells were set up for each concentration. If the cells were adherent, the cells were first allowed to grow overnight in 96 microtiter plates until the cells were adherent, and then the old medium was replaced with the drug-containing medium. The plates were incubated in a 5% CO2 cell incubator at 37 °C for 72 h. Then, 15 μL of MTT solution was added to each well, 100 μL of 10% SDS solution (pH = 2) was added after 4 h, and the plate was incubated at 37 °C with 5% CO2 overnight to fully dissolve the crystals. Finally, the absorbance value of each well was measured at 570 and 655 nm.
(§3) The cells (about 1 × 10^4 cells) were treated with different concentrations of NBU-2 and DMSO control for different times (24 h, 48 h, 72 h), with 3 replicate wells for each concentration. Incubate at 37 °C in a 5% CO2 cell culture incubator. After a predetermined time, 10 μL of CCK-8 was added to each well and incubated for 2 h. The absorbance was measured at the excitation wavelength of 450 nm.

In assay [2] the test system is 4T1, mouse breast cancer cell line. The following applies: 72 h.
Description: as §1, §2, §3

For assay [3], the system named is MDA-MB-231, human breast cancer cell line. The following applies: MDA-MB-231, read-out: IC50 proliferation MDA-MB-231, heading: IC50 proliferation MDA-MB-231, 72 h, mean ± SEM of three independent assays.
Description: as §1, §2, §3

Assay [4] deals with HCT-116, human colorectal cancer cell line. The following applies: HCT-116, read-out: IC50 proliferation HCT-116, heading: IC50 proliferation HCT-116, 72 h, mean ± SEM of three independent assays.
Description: as §1, §2, §3

The subject of assay [5] is K562, human erythroleukemia line. The following applies: K562, read-out: IC50 proliferation K562, heading: IC50 proliferation K562, 72 h, mean ± SEM of three independent assays.
Description: as §1, §2, §3

Assay [6] has as its system CCRF-CEM, human leukemic lymphoblasts.
Description: as §1, §2, §3

Assay [7] has as its system Hep G2, human hepatoma cell lines. The following applies: HepG2, read-out: IC50 proliferation HepG2, heading: IC50 proliferation HepG2, 72 h, mean ± SEM of three independent assays.
Description: as §1, §2, §3

Assay [8] concerns A549, human lung cancer cell line. The following applies: A549, read-out: IC50 proliferation A549, heading: IC50 proliferation A549, 72 h, mean ± SEM of three independent assays.
Description: as §1, §2, §3

Consider `Cc1cccc2c(=O)c3c(NCCCCCC(=O)NO)ccc([N+](=O)[O-])c3[nH]c12` [NBU-2, N-hydroxy-6-((5-methyl-4-nitro-9-oxo-9,10-dihydroacridin-1-yl)amino)hexanamide], for which the IC50 in assay [1] is 14.9 ± 3.21 µM; in assay [2], above 0.05 µM; in assay [3], 8.76 ± 1.88 µM; in assay [4], 7.06 ± 1.48 µM; in assay [5], 7.02 ± 1.85 µM; in assay [6] (72 h, read-out: IC50 against CCRF-CEM), below 5 µM. In addition, the IC50 in assay [6] (read-out: IC50 proliferation CCRF-CEM, 72 h, mean ± SEM of three independent assays) is 2.68 ± 0.3 µM; in assay [7], 7.55 ± 0.46 µM; in assay [8], 33.7 ± 2.15 µM.
